The target in the assay is HIV-1 RT wild-type enzyme (Human immunodeficiency virus type 1 group M subtype B (isolate HXB2) (HIV-1), UniProt P04585). The assay is described as follows: HIV-1 reverse transcriptase inhibitory activity (RT polymerase assay). Type of assay: biochemical. The following applies: HIV-1 RT wild-type enzyme 83 pM; RNA-dependent DNA polymerase activity; read-out: IC50. The method in brief: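 Biotinylated DNA primer annealed to HCV-derived RNA template (16.6 nM final hybrid), with 2 μM dATP/dGTP/dCTP and 66.6 nM Ru-dUTP, after 30 min compound–enzyme preincubation at room temperature; polymerization 90 min at 37 °C, EDTA quench. Product captured on avidin plates, electrochemiluminescence read; IC50 by four-parameter logistic fit versus DMSO and 1 μM efavirenz controls.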
As for `N#Cc1cc(Cl)cc(Oc2c(C(F)(F)F)ncn(Cc3cc(-c4ccc(C(O)C(F)F)cc4)n[nH]c3=O)c2=O)c1` (centres unmarked) [Example 125, 3-chloro-5-((1-((6-(4-(2,2-difluoro-1-hydroxyethyl)phenyl)-3-oxo-2,3-dihydropyridazin-4-yl)methyl)-6-oxo-4-(trifluoromethyl)-1,6-dihydropyrimidin-5-yl)oxy)benzonitrile], the IC50 was found to be 8 nM. `N#Cc1cc(Cl)cc(Oc2c(C(F)(F)F)ncn(Cc3cc(-c4ccnc5[nH]ccc45)n[nH]c3=O)c2=O)c1` [Example 126, 3-chloro-5-((6-oxo-1-((3-oxo-6-(1H-pyrrolo[2,3-b]pyridin-4-yl)-2,3-dihydropyridazin-4-yl)methyl)-4-(trifluoromethyl)-1,6-dihydropyrimidin-5-yl)oxy)benzonitrile]: the IC50 was 4 nM.

On to `N#Cc1cc(Cl)cc(Oc2c(C(F)(F)F)ncn(Cc3cnc(C(F)(F)F)[nH]c3=O)c2=O)c1` [Example 131, 3-Chloro-5-[16-oxo-1-(6-oxo-2-trifluoromethyl-1,6-dihydro-pyrimidin-5-ylmethyl)-4-trifluoromethyl-1,6-dihydro-pyrimidin-5-yloxy]-benzonitrile], for which the IC50 turned out to be 435 nM.

In the case of `CSc1ncc(Cn2cnc(C(F)(F)F)c(Oc3cc(Cl)cc(C#N)c3)c2=O)c(=O)[nH]1` [Example 132, 3-chloro-5-((1-((2-(methylthio)-6-oxo-1,6-dihydropyrimidin-5-yl)methyl)-6-oxo-4-(trifluoromethyl)-1,6-dihydropyrimidin-5-yl)oxy)benzonitrile], the concentration for half-maximal inhibition (IC50) turned out to be 12 nM. The same measure for `Cc1ncc(Cn2cnc(C(F)(F)F)c(Oc3cc(Cl)cc(C#N)c3)c2=O)c(=O)[nH]1` [Example 133, 3-chloro-5-((1-((2-methyl-6-oxo-1,6-dihydropyrimidin-5-yl)methyl)-6-oxo-4-(trifluoromethyl)-1,6-dihydropyrimidin-5-yl)oxy)benzonitrile]: 8 nM. The same measure for `N#Cc1cc(Cl)cc(Oc2c(C3CC3)ncn(Cc3ccc(=O)[nH]n3)c2=O)c1` [Example 134, 3-chloro-5-((4-cyclopropyl-6-oxo-1-((6-oxo-1,6-dihydropyridazin-3-yl)methyl)-1,6-dihydropyrimidin-5-yl)oxy)benzonitrile]: 17 nM; for `N#Cc1cc(Cl)cc(Oc2c(C(F)(F)F)ncn(Cc3cnc(O)[nH]c3=O)c2=O)c1` [Example 135, 3-chloro-5-((1-((2-hydroxy-6-oxo-1,6-dihydropyrimidin-5-yl)methyl)-6-oxo-4-(trifluoromethyl)-1,6-dihydropyrimidin-5-yl)oxy)benzonitrile]: 8 nM.

Regarding `N#Cc1cc(Cl)cc(Oc2c(C(F)(F)F)ncn(Cc3cnc[nH]c3=O)c2=O)c1` [Example 136, 3-chloro-5-((6-oxo-1-((6-oxo-1,6-dihydropyrimidin-5-yl)methyl)-4-(trifluoromethyl)-1,6-dihydropyrimidin-5-yl)oxy)benzonitrile], the IC50 was 6 nM. The same measure for `CNc1ncc(Cn2cnc(C(F)(F)F)c(Oc3cc(Cl)cc(C#N)c3)c2=O)c(=O)[nH]1` [Example 137, 3-chloro-5-((1-((2-(methylamino)-6-oxo-1,6-dihydropyrimidin-5-yl)methyl)-6-oxo-4-(trifluoromethyl)-1,6-dihydropyrimidin-5-yl)oxy)benzonitrile]: 9 nM; for `CNc1ncc(Cn2cnc(C(F)(F)F)c(Oc3cc(Cl)cc(C#N)c3)c2=O)c(OC)n1` [Example 138, 3-chloro-5-((1-((4-methoxy-2-(methylamino)pyrimidin-5-yl)methyl)-6-oxo-4-(trifluoromethyl)-1,6-dihydropyrimidin-5-yl)oxy)benzonitrile]: 11 nM; for `N#Cc1cc(Cl)cc(Oc2c(C(F)(F)F)ncn(Cc3cnc(OCC(F)(F)F)[nH]c3=O)c2=O)c1` [Example 139, 3-Chloro-5-{6-oxo-1-[6-oxo-2-(2,2,2-trifluoro-ethoxy)-1,6-dihydro-pyrimidin-5-ylmethyl]-4-trifluoromethyl-1,6-dihydro-pyrimidin-5-yloxy}-benzonitrile]: 45 nM. In the case of `N#Cc1cc(Cl)cc(Oc2c(C(F)(F)F)ncn(Cc3cnc(Oc4ccc(F)cc4)[nH]c3=O)c2=O)c1` [Example 140, 3-Chloro-5-{1-[2-(4-fluoro-phenoxy)-6-oxo-1,6-dihydro-pyrimidin-5-ylmethyl]-6-oxo-4-trifluoromethyl-1,6-dihydro-pyrimidin-5-yloxy}-benzonitrile], the IC50 came out at 36 nM. Under `CN(C)c1ncc(Cn2cnc(C(F)(F)F)c(Oc3cc(Cl)cc(C#N)c3)c2=O)c(=O)[nH]1` [Example 141, 3-Chloro-5-[1-(2-dimethylamino-6-oxo-1,6-dihydro-pyrimidin-5-ylmethyl)-6-oxo-4-trifluoromethyl-1,6-dihydro-pyrimidin-5-yloxy]-benzonitrile] stands 13 nM; under `N#Cc1cc(Cl)cc(Oc2c(C(F)(F)F)ncn(Cc3cnc(-n4cccn4)[nH]c3=O)c2=O)c1` [Example 142, 3-Chloro-5-[6-oxo-1-(6-oxo-2-pyrazol-1-yl-1,6-dihydro-pyrimidin-5-ylmethyl)-4-trifluoromethyl-1,6-dihydro-pyrimidin-5-yloxy]-benzonitrile], 35 nM. As for `N#Cc1cc(Cl)cc(Oc2c(C(F)(F)F)ncn(Cc3cnc(N)[nH]c3=O)c2=O)c1` [Example 143, 3-((1-((2-amino-6-oxo-1,6-dihydropyrimidin-5-yl)methyl)-6-oxo-4-(trifluoromethyl)-1,6-dihydropyrimidin-5-yl)oxy)-5-chlorobenzonitrile], the 50% inhibitory concentration (IC50) was determined as 7 nM. Under `CCc1ncc(Cn2cnc(C(F)(F)F)c(Oc3cc(Cl)cc(C#N)c3)c2=O)c(=O)[nH]1` [Example 144, 3-chloro-5-((1-((2-ethyl-6-oxo-1,6-dihydropyrimidin-5-yl)methyl)-6-oxo-4-(trifluoromethyl)-1,6-dihydropyrimidin-5-yl)oxy)benzonitrile] stands 9 nM. Under `N#Cc1cc(Cl)cc(Oc2c(C(F)(F)F)ncn(Cc3cnc(C4CC4)[nH]c3=O)c2=O)c1` [Example 145, 3-chloro-5-((1-((2-cyclopropyl-6-oxo-1,6-dihydropyrimidin-5-yl)methyl)-6-oxo-4-(trifluoromethyl)-1,6-dihydropyrimidin-5-yl)oxy)benzonitrile] stands 9 nM; under `N#Cc1cc(Cl)cc(Oc2c(C(F)(F)F)ncn(Cc3cnc(-c4ccc(F)cc4)[nH]c3=O)c2=O)c1` [Example 146, 3-chloro-5-((1-((2-(4-fluorophenyl)-6-oxo-1,6-dihydropyrimidin-5-yl)methyl)-6-oxo-4-(trifluoromethyl)-1,6-dihydropyrimidin-5-yl)oxy)benzonitrile], 19 nM; under `N#Cc1cc(Cl)cc(Oc2c(C(F)(F)F)ncn(Cc3cnc(-c4ccccc4F)[nH]c3=O)c2=O)c1` [Example 147, 3-chloro-5-((1-((2-(2-fluorophenyl)-6-oxo-1,6-dihydropyrimidin-5-yl)methyl)-6-oxo-4-(trifluoromethyl)-1,6-dihydropyrimidin-5-yl)oxy)benzonitrile], 17 nM.

Consider `N#Cc1cc(Cl)cc(Oc2c(C(F)(F)F)ncn(Cc3cnc(-c4ccn[nH]4)[nH]c3=O)c2=O)c1` [Example 148, 3-chloro-5-((6-oxo-1-((6-oxo-2-(1H-pyrazol-5-yl)-1,6-dihydropyrimidin-5-yl)methyl)-4-(trifluoromethyl)-1,6-dihydropyrimidin-5-yl)oxy)benzonitrile], for which the concentration for half-maximal inhibition (IC50) is 9 nM.

By IC50 is commonly meant the concentration needed to halve the response being measured.

Values taken from patent publication US9718819B2 (Merck Sharp & Dohme Corp., priority 2012, dated 2017).
